Like-named read-outs stand apart in the source and are kept apart here.
Tests used:
A673 cells = assay: Dose-response cell proliferation, crystal violet assay, 72 h; type: cell-based; settings: ratio of IC50 in NHDF cells to IC50 in A673 cells
Description: Small molecule splicing modulators were tested in a dose-response assay using A673 cells and NHDF cells.
A673 cells or NHDF cells were first plated in 96-well plastic tissue culture plates (10,000 cells per well). The cells were treated with vehicle alone (DMSO), or increasing concentrations of SMSM compounds for 72 h. Following treatment, cell proliferation was determined using a crystal violet assay. The relative cell proliferation at each concentration was determined.

[1] = Splicing (IC50), Example 22; type: cell-based; settings: spliced gene and cells not stated
Description: A-673 cell viability […], splicing (IC50) and brain AUC/Plasma AUC of SMSMs were determined. As shown in the tables below SMSMs had high CNS exposure.

A-673 cells = assay: Cell viability, crystal violet staining; type: cell-based; settings: Homo sapiens
Method in brief: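 Readout is absorbance at 570 nm of crystal violet, taken up in 0.1 M sodium citrate in 50% ethanol after staining with 0.5% dye in 25% methanol. Plates held 5×10^3 cells per well, and compounds were added one day after seeding for 72 hours. Data are relative to vehicle, mean±SE.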

[2] = Maximum tolerable dose study; type: in vivo; settings: mice, 3 per group
Description: Survival of mice after administration of SMSMs after 10 or 11 days was assessed.
Tolerance of the drug treatments was determined by measuring the weight of the mice during the period of drug administration. Body weight was measured prior to tumor inoculation and prior to the treatment administration and then daily. The changes in the final weight of the mice for the SMSM treatments were determined.

[3] = tested on: FOXM1^A2 mRNA and FOXM1^BC mRNA; assay: Splicing assay (FOXM1), qPCR of isoform mRNAs; type: cell-based
Method in brief: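 Cells (20,000/well) treated at plating with compound, 8-point 4-fold series from 10 μM, 0.2% DMSO, 24 h at 37° C. Isoform mRNAs quantified by RT-qPCR against plasmid standards, normalized to PPIA and DMSO control; isoform ratio computed per concentration.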

SMN2^FL mRNA = assay: SMN2 splicing assay, real-time quantitative PCR, SMA type I patient cells (GM03813); type: cell-based; settings: Homo sapiens, 24 hours
Description: (§1) Various cells lines were treated with the SMSMs described herein. RNA was then isolated, cDNA synthesized, qPCR performed and the levels of various mRNA targets of the SMSMs were determined. In some instances, RNA was isolated, cDNA synthesized, qPCR performed and the levels of mRNA isoforms in the various cell samples were determined.
(§2) SMA type I patient cells (GM03813 (Coriell))
(§3) On the day of the experiment, a 96-well plate was seeded with the cell lines of interest. The cells were diluted with full growth media to a concentration of 2.0×10^5 cells/mL and 100 μL of cells were added to each well (20,000 cells per well). The cells were treated with a compound immediately after plating.
(§4) The compounds were then added to the cell plate using the HP compound dispenser. In the initial experiment, a top concentration of 10 μM and an 8 point 4-fold dilution scheme was used. The stock compounds were made at a concentration of 5 mM, and the DMSO concentration was set to 0.2%. DMSO was used to normalize all the compound-containing wells and the untreated cells.
(§5) The treated cells were incubated at 37° C. in a 5% CO2 incubator for the desired amount of time. Plates were placed in a plastic bag with a wet paper towel to prevent evaporation.
(§6) RNA was isolated using the Cells to CT kit (ThermoFisher, AM1728). The cells were washed once with 100 μL cold PBS. 50 μL of lysis buffer was added to each well/tube (49.5 μL lysis buffer+0.5 μL DNase I per well/tube). The lysis reaction was mixed and incubated at room temperature for 5 minutes. 5 μL of stop solution was added directly into each cell lysis reaction and mixed by pipetting up and down 5 times. The plates/tubes were incubated at room temperature for 2 minutes then placed on ice if the cDNA synthesis was to be performed immediately. Otherwise, the plates/tubes were stored at −80° C.
(§7) cDNA synthesis reactions were then performed. 40 μL RT master mix was added to PCR tubes or plate wells. 10 μL of RNA was added to each tube/well. The RT thermal cycler program was then run and tubes or plate wells were incubated at 37° C. for 1 hour, then at 95° C. for 5 minutes to deactivate the enzyme.
(§8) The qPCR was performed using a QuantStudio 6instrument (ThermoFisher) and the following cycling conditions and according to the tables below. All samples and standards were analyzed in triplicate. Cycle 1: 2 minutes at 50° C. Cycle 2: 10 minutes at 95′C. Cycle 3 (repeat 40 times): 15 seconds at 95° C., 1 minute at 60° C.
(§9) The determined SMN2^Δ7 and SMN2^FL quantities were then be used to determine the SMN2^Δ7:SMN2^FL ratio at the various compound concentrations. The PPIA quantities were used in the normalization to account of cell proliferation effects of the compounds.
(§10) An assay to measure the SMN2^FL mRNA and SMN2^Δ7 mRNA simultaneously in cell wells was performed. The RNA values were measured relative to DMSO control and also included a housekeeping gene, PPIA to ensure data was consistent. The mRNA values were measured after 24 hours of incubation with the SMSM compounds.
(§11) Additionally, to monitor expression levels of SMN2 splice variant using real-time quantitative PCR, SMA type I patient cells (GM03813 (Coriell)) were plated at 5,000 cells/well in 200 μl Dulbecco's modified Eagle's medium (DMEM) with GlutaMAX and 10% fetal bovine serum (FBS) (Life Technologies, Inc.) in 96-well plates, and incubated for 6 hours in a cell culture incubator. Cells were then treated with SMSMs at different concentrations (0.5% DMSO) in duplicate for 24 hours. After removal of the supernatant, cells were lysed in Cells-To-Ct lysis buffer (Life Technologies, Inc.) according to the manufacturer's recommendations. The mRNA levels of SMN2 FL, SMN2 A7 were quantified using Taqman-based RT-qPCR and SMN2-specific primers and probes. The SMN2 forward and reverse primers were each used at a final concentration of 0.4 μM. The SMN2 probe was used at a final concentration of 0.1 μM. […]

SMN2^Δ7 mRNA = assay: as above; type: cell-based; settings: Homo sapiens, 24 hours
Description: as §1, §2, §3, §4, §5, §6, §7, §8, §9, §10, §11

[4] = A673, cell viability, read-out: A-673 IC50 (nM) Cell viability
[5] = A673, read-out: A-673 cell viability (IC50)
[6] = FoxM1 BC mRNA decrease (exon included), read-out: Splice IC50 (nM) FoxM1 BC mRNA decrease (exon included)
[7] = Homo sapiens, A673, 24 h, A-673 cells, 24 hours, table does not say EC50 or IC50, read-out: FOXM1
[8] = Homo sapiens, A-375, 24 h, A-375 cells, 24 hours, table does not say EC50 or IC50, read-out: FOXM1
[9] = Homo sapiens, Hep3B, 24 h, Hep-3B cells, 24 hours, table does not say EC50 or IC50, read-out: FOXM1
[10] = Homo sapiens, K562, 24 h, K-562 cells, 24 hours, table does not say EC50 or IC50, read-out: FOXM1
[11] = Homo sapiens, MDA-MB-468, 24 h, MDA-MB-468 cells, 24 hours, table does not say EC50 or IC50, read-out: FOXM1
[12] = Homo sapiens, NCI-H358, 24 h, NCI-H358 cells, 24 hours, table does not say EC50 or IC50, read-out: FOXM1
[13] = Homo sapiens, PANC-1, 24 h, PANC-1 cells, 24 hours, table does not say EC50 or IC50, read-out: FOXM1
[14] = Homo sapiens, PC-3, 24 h, PC-3 cells, 24 hours, table does not say EC50 or IC50, read-out: FOXM1
[15] = Homo sapiens, U-87 MG, 24 h, U-87MG cells, 24 hours, table does not say EC50 or IC50, read-out: FOXM1
[16] = read-out: Splice EC50 (nM) FoxM1 A mRNA increase (exon excluded)
[17] = A673, cell viability, read-out: A-673 IC50 (nM), Cell viability
[18] = 24 h, FoxM1 BC mRNA decrease (exon included), 0.1-1000 nM, 24 hours, read-out: Splice IC50 (nM), FoxM1 BC mRNA decrease (exon included)
[19] = FoxM1 A mRNA increase (exon excluded), 0.1-1000 nM, 24 hours, read-out: Splice EC50 (nM), FoxM1 A mRNA increase (exon excluded)

Compound	Ratio NHDF/A673 IC50 (A673 cells)	IC50 [1] [nM]	IC50 (A-673 cells; [4]) [nM]	IC50 (A-673 cells; [5]) [nM]	IC50 [3, 6] [nM]	EC50 [3, 16] [nM]	IC50 (A-673 cells; [17]) [nM]	IC50 [3, 18] [nM]	EC50 [3, 19] [nM]	also measured
CC(/C=C/C(=O)NO)=C\[C@@H](C)C(=O)c1ccc(N(C)C)cc1 [Trichostatin A]	≤10									
CN(c1ccc(-c2cc(F)c(-c3cn[nH]c3)cc2O)nn1)[C@H]1C[C@]2(C)CC[C@](C)(C1)N2 [compound 167, 2-(6-(((1R,3s,5S)-1,5-dimethyl-8-azabicyclo[3.2.1]octan-3-yl)(methyl)amino)pyridazin-3-yl)-4-fluoro-5-(1H-pyrazol-4-yl)phenol]	>2,500	< 1	< 10	< 0.5	< 10	< 10				Outcome ([2]; IP 0.1 mg/kg BIDx12): All survived; Outcome ([2]; IP 0.3 mg/kg BIDx12): All survived; Outcome ([2]; IP 1 mg/kg QDx12): All survived; Outcome ([2]; PO 5 mg/kg QDx12): All survived; IC50 [3, 7]: < 1 nM; IC50 [3, 8]: < 1 nM; IC50 [3, 9]: 11 to 100 nM; IC50 [3, 10]: 1 to 10 nM; IC50 [3, 11]: 1 to 10 nM; IC50 [3, 12]: < 1 nM; IC50 [3, 13]: 11 to 100 nM; IC50 [3, 14]: 11 to 100 nM; IC50 [3, 15]: 11 to 100 nM
CN(c1ccc(-c2ccc(-c3ccn(C)c(=O)c3)cc2O)nn1)[C@H]1C[C@]2(C)CC[C@](C)(C1)N2 [compound 168, 4-(4-(6-(((1R,3s,5S)-1,5-dimethyl-8-azabicyclo[3.2.1]octan-3-yl)(methyl)amino)pyridazin-3-yl)-3-hydroxyphenyl)-1-methylpyridin-2(1H)-one]	>500	< 1	< 10	≤ 5	< 10	> 1000				IC50 [3, 7]: 1 to 10 nM; IC50 [3, 8]: 1 to 10 nM; IC50 [3, 9]: 101 to 200 nM; IC50 [3, 10]: 11 to 100 nM; IC50 [3, 11]: 11 to 100 nM; IC50 [3, 12]: 1 to 10 nM; IC50 [3, 13]: 101 to 200 nM; IC50 [3, 14]: 11 to 100 nM; IC50 [3, 15]: 11 to 100 nM
CN(c1ccc(-c2cc(F)c(-c3ccn(C)c(=O)c3)cc2O)nn1)[C@H]1C[C@]2(C)CC[C@](C)(C1)N2 [compound 169, 4-(4-(6-(((1R,3s,5S)-1,5-dimethyl-8-azabicyclo[3.2.1]octan-3-yl)(methyl)amino)pyridazin-3-yl)-2-fluoro-5-hydroxyphenyl)-1-methylpyridin-2(1H)-one]		< 1	< 10	≤ 5	< 10	> 1000				
Oc1cc(-n2ccnc2)ccc1-c1ccc(O[C@@H]2C[C@H]3CC[C@@H](C2)N3)nn1 [compound 245, 2-(6-(((1R,3s,5S)-8-azabicyclo[3.2.1]octan-3-yl)oxy)pyridazin-3-yl)-5-(1H-imidazol-1-yl)phenol]		30					501 to 1000	101 to 250	10 to 100	
Oc1cc(-n2nccn2)ccc1-c1ccc(O[C@@H]2C[C@H]3CC[C@@H](C2)N3)nn1 [compound 251, 2-(6-(((1R,3s,5S)-8-azabicyclo[3.2.1]octan-3-yl)oxy)pyridazin-3-yl)-5-(2H-1,2,3-triazol-2-yl)phenol]		150					251 to 500	101 to 250	10 to 100	
Cc1nnn(-c2ccc(-c3ccc(O[C@@H]4C[C@H]5CC[C@@H](C4)N5)nn3)c(O)c2)n1 [compound 258, 2-(6-(((1R,3s,5S)-8-azabicyclo[3.2.1]octan-3-yl)oxy)pyridazin-3-yl)-5-(5-methyl-2H-tetrazol-2-yl)phenol]		149					251 to 500	101 to 250	10 to 100	
COc1cc(-c2ccc(-c3ccc(N(C)[C@@H]4C[C@H]5CCC[C@@H](C4)N5)nn3)c(O)c2)ccn1 [compound 289, 2-(6-(((1R,3s,5S)-9-azabicyclo[3.3.1]nonan-3-yl)(methyl)amino)pyridazin-3-yl)-5-(2-methoxypyridin-4-yl)phenol]							< 10			EC50 (SMN2^FL mRNA): 4 nM; IC50 (SMN2^Δ7 mRNA): 4 nM

Source: US11008572B2, “Methods and compositions for modulating splicing” (SKYHAWK THERAPEUTICS, INC., priority 2017, dated 2021)
